Experimental findings from patent publication US10975068B2, “6-aminopyridin-3-yl thiazoles as modulators of RORγT” (Janssen Pharmaceutica NV, priority 2016, dated 2021) are described below.

One assay addresses full-length human RORγt (Homo sapiens (Human), UniProt P51449). Put plainly: RORγt (full-length human) reporter assay, Conditions B or C. The assay is classed as cell-based. The conditions noted are these: for inhibition at 3 µM: at 3 μM compound concentration; for inhibition at 3 µM / inhibition at 1 µM: read-out: RORγt (FL) Reporter Assay B or C, % inhibition; for RORγt (FL) Reporter Assay B or C, % inhibition (value marked *): marked *: footnote not given; for inhibition at 1 µM: at 1 μM compound concentration; for inhibition at 6 µM: read-out: RORγt (FL) Reporter Assay B or C, % inhibition @ 6 μM, Conditions B or C. The method, boiled down:
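Readout is dual luciferase: firefly (GAL4-driven) normalized to DMSO-only and saturating-reference controls, then to CMV-Renilla. Full-length human RORγt fused to GAL4-DBD was transiently expressed in HEK293T; compound exposure ran overnight (16-20 h) starting 4-6 h after transfection, final FBS 1.3%, DMSO 0.1%.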
A general note: In a reporter assay the amount or activity of a reporter protein is the signal.

Assay [1] deals with human RORγt ligand binding domain (RORγt LBD) (Homo sapiens (Human), UniProt P51449). Put plainly: RORγt ThermoFluor® assay (thermal shift binding). The conditions noted are these: for pKd: read-out: ThermoFluor® Assay, Kd. The method, boiled down: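 Binding was inferred from thermal stabilisation (ΔTm) of the E. coli-expressed RORγt LBD (0.065 mg/mL), monitored by 1,8-ANS (60 μM) emission at 500 nm during a 1 °C/min ramp. Buffer was Hepes 100 mM pH 7.0 with NaCl, GSH and Tween-20.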
human RORγt ligand binding domain (RORγt LBD), sequence (P51449 other isoform, or with tags, fused parts or gaps): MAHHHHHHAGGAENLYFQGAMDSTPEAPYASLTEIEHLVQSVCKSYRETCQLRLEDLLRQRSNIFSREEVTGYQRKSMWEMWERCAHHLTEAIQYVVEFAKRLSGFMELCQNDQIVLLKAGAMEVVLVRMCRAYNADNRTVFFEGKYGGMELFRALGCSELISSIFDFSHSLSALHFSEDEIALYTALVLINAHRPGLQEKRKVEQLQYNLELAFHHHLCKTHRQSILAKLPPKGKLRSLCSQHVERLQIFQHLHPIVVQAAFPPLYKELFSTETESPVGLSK

Where [2] appears, read: read-out: RORγt (FL) Reporter Assay B or C, IC50.
[3] abbreviates: Conditions B or C, read-out: RORγt (FL) Reporter Assay B or C, IC50.
Setting [4] is: compared to Comparator Example 1.
The mark [5] stands for this setting: compared to Comparator Example 2.
The mark [6] stands for this setting: RORγt (FL) Reporter Assay B or C, IC50.

SMILES strings stand for the structures. pIC50, pKd: −log10 of the molar value. Read-outs that look alike come from different tables or passages of the source.

full-length human RORγt, sequence (P51449 other isoform, or with tags, fused parts or gaps): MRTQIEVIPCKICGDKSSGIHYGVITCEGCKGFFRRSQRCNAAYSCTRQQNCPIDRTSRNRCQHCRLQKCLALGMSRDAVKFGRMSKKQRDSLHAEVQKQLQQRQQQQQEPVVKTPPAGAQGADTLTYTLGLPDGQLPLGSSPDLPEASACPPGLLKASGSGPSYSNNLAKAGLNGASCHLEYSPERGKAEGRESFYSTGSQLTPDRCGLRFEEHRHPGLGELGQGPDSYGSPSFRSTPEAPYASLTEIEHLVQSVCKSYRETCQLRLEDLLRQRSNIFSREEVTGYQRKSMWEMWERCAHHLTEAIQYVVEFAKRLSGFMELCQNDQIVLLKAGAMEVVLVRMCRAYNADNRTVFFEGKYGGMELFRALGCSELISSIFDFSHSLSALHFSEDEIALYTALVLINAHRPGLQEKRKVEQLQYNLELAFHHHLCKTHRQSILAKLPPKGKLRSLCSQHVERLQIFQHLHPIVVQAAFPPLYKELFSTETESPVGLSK

Broadly, the inhibition is the change of the read-out against control, counted positive when it falls. In general, pIC50 refers to the negative decadic logarithm of the IC50, by convention in mol/L. A word on the pKd: it is the negative decadic logarithm of the Kd, by convention in mol/L. Regarding `C[C@H]1CCCN1C(=O)c1nc(C(=O)N2C[C@@H](O)[C@H](F)C2)sc1-c1cnc(NC(C)(C)C)cc1C(F)(F)F` [Example 372, [5-[6-(tert-Butylamino)-4-(trifluoromethyl)-3-pyridyl]-2-[(3R,4R)-3-fluoro-4-hydroxy-pyrrolidine-1-carbonyl]thiazol-4-yl]-[(2S)-2-methylpyrrolidin-1-yl]methanone], at full-length human RORγt, the inhibition at 3 µM is 125%. Moreover, the pIC50 on full-length human RORγt (setting [2]) is 7.23. In assay [1], the pKd was 8.04.

`C[C@H](Nc1cc(C(F)F)c(-c2sc(C(=O)N[C@H]3CC[C@H](O)C3)nc2C(=O)N2CCC[C@@H]2C)cn1)C(F)(F)F` [Example 288, 5-(4-(Difluoromethyl)-6-(((S)-1,1,1-trifluoropropan-2-yl)amino)pyridin-3-yl)-N-((1S,3S)-3-hydroxycyclopentyl)-4-((S)-2-methylpyrrolidine-1-carbonyl)thiazole-2-carboxamide]: the inhibition at 3 µM on full-length human RORγt amounted to 103%. For the same compound, at full-length human RORγt (setting [2]), the pIC50 is 7.54. Also, in assay [1], the pKd was 8.36.

As for `C[C@H]1CCCN1C(=O)c1nc(C(=O)NCC(C)(C)O)sc1-c1cnc(NC2CCCCC2)c(C#N)c1` [Example 146, (S)-5-(5-Cyano-6-(cyclohexylamino)pyridin-3-yl)-N-(2-hydroxy-2-methylpropyl)-4-(2-methylpyrrolidine-1-carbonyl)thiazole-2-carboxamide], the “RORγt (FL) Reporter Assay B or C, % inhibition (value marked *)” value (“RORγt … % inhibition (value marked *)” below) at full-length human RORγt (Conditions B or C) was 98* %. The pIC50 was 6.08 at full-length human RORγt (setting [3]) and 6.08 on full-length human RORγt (HEK293T cells, read-out: RORγt (FL) Reporter Assay B or C, IC50). Moreover, the “fold improvement in RORγt reporter assay activity” value turned out to be 7.2 fold at full-length human RORγt (setting [4]) and 3.6 fold on full-length human RORγt (setting [5]). Besides, the “fold improvement in RORγt Thermofluor® binding assay activity” value in assay [1] (setting [4]) was determined as 14 fold; in assay [1] (setting [5]), 27 fold. In addition, the pKd in assay [1] is 6.68.

In the case of `C[C@H]1CC(F)(F)CN1C(=O)c1nc(C(=O)N[C@H]2C[C@H](O)C2)sc1-c1cnc(N[C@@H](C2CC2)C(F)(F)F)cc1C(F)F` [Example 315, 5-(6-(((S)-1-Cyclopropyl-2,2,2-trifluoroethyl)amino)-4-(difluoromethyl)pyridin-3-yl)-4-((S)-4,4-difluoro-2-methylpyrrolidine-1-carbonyl)-N-((1r,3S)-3-hydroxycyclobutyl)thiazole-2-carboxamide], on full-length human RORγt, the inhibition at 1 µM came out at 99%. For the same compound, the pIC50 on full-length human RORγt (setting [2]) is 7.82. The pKd in assay [1] was 8.54.

Turning to `C[C@H]1CCCN1C(=O)c1nc(C(=O)NC2CN(C)C2)sc1-c1cnc(NC(C)(C)C)cc1C(F)(F)F` [Example 356, 5-[6-(tert-Butylamino)-4-(trifluoromethyl)-3-pyridyl]-N-(1-methylazetidin-3-yl)-4-[(2S)-2-methylpyrrolidine-1-carbonyl]thiazole-2-carboxamide], at full-length human RORγt, the inhibition at 3 µM was 94%. The pIC50 at full-length human RORγt (setting [2]) is 7.46. Also, in assay [1], the pKd was 7.33.

`O=C(N[C@@H]1CCC[C@H]1O)c1nc(C(=O)N2C3CCC2CC3)c(-c2cnc(N[C@@H](C3CC3)C(F)(F)F)cc2C(F)F)s1` [Example 439, 4-((1s,4s)-7-Azabicyclo[2.2.1]heptane-7-carbonyl)-5-[6-[[(1S)-1-cyclopropyl-2,2,2-trifluoro-ethyl]amino]-4-(difluoromethyl)-3-pyridyl]-N-[(1R,2R)-2-hydroxycyclopentyl]thiazole-2-carboxamide]: on full-length human RORγt, the inhibition at 3 µM is 102%. For the same compound, the negative-log IC50 (pIC50) on full-length human RORγt (setting [2]) is 8.00. The pKd in assay [1] is 9.57.

For the compound `CC(C)(C)Nc1cc(C(F)F)c(-c2sc(C(=O)N[C@H]3CCC[C@@H]3O)nc2C(=O)N2C3CCC2CC3)cn1` [Example 440, 4-((1s,4s)-7-Azabicyclo[2.2.1]heptane-7-carbonyl)-5-[6-(tert-butylamino)-4-(difluoromethyl)-3-pyridyl]-N-[(1S,2S)-2-hydroxycyclopentyl]thiazole-2-carboxamide], the pIC50 on full-length human RORγt (setting [6]) was 7.51. In addition, the inhibition at 3 µM on full-length human RORγt is 104%. Further, the pKd in assay [1] is 9.14.

Consider `C[C@H]1CCCCN1C(=O)c1nc(C(=O)NC2CCS(=O)(=O)CC2)sc1-c1cnc(NC2CCCC2)cc1C(F)(F)F` [Example 28, (S)-5-(6-(Cyclopentylamino)-4-(trifluoromethyl)pyridin-3-yl)-N-(1,1-dioxidotetrahydro-2H-thiopyran-4-yl)-4-(2-methylpiperidine-1-carbonyl)thiazole-2-carboxamide], for which the pIC50 on full-length human RORγt (setting [3]) was 7.85. Further, at full-length human RORγt, the inhibition at 6 µM is 123%. In assay [1], the pKd is 9.77.

Consider `CC[C@H](Nc1cc(C(F)(F)F)c(-c2sc(C(=O)N[C@H]3COC[C@@H]3O)nc2C(=O)N2CCC[C@@H]2C)cn1)C(F)(F)F` [Example 174, N-((3S,4R)-4-Hydroxytetrahydrofuran-3-yl)-4-((2S)-2-methylpyrrolidine-1-carbonyl)-5-(4-(trifluoromethyl)-6-(((1S)-1-(trifluoromethyl)propyl)amino)-3-pyridyl)thiazole-2-carboxamide], for which the “RORγt … % inhibition (value marked *)” value at full-length human RORγt (Conditions B or C) is 106* %. The pIC50 at full-length human RORγt (setting [3]) is 7.60. Besides, the pKd in assay [1] is 8.85.

For the compound `CCNC(=O)c1nc(C(=O)N2CCC[C@@H]2C)c(-c2cnc(NC(C)(C)C)cc2C(F)(F)F)s1` [Example 309, (S)-5-(6-(tert-Butylamino)-4-(trifluoromethyl)pyridin-3-yl)-N-ethyl-4-(2-methylpyrrolidine-1-carbonyl)thiazole-2-carboxamide], the inhibition at 3 µM at full-length human RORγt worked out at 95%. In addition, the pIC50 at full-length human RORγt (setting [2]) is 7.89. The pKd in assay [1] was 7.80.

For `C[C@H]1CCCN1C(=O)c1nc(C(=O)NCC(O)(C(F)(F)F)C(F)(F)F)sc1-c1cnc(NC(C)(C)C)cc1C(F)(F)F` [Example 271, 5-[6-(tert-Butylamino)-4-(trifluoromethyl)-3-pyridyl]-4-[(2S)-2-methylpyrrolidine-1-carbonyl]-N-[3,3,3-trifluoro-2-hydroxy-2-(trifluoromethyl)propyl]thiazole-2-carboxamide], the inhibition at 3 µM on full-length human RORγt was 106%. Also, at full-length human RORγt (setting [2]), the pIC50 was 8.24. Moreover, the pKd in assay [1] is 8.40.

Regarding `CC[C@@H](Nc1cc(C(F)F)c(-c2sc(C(=O)N[C@@H]3COC[C@H]3O)nc2C(=O)N2CCC[C@@H]2C)cn1)C(F)(F)F` [Example 204, 5-(4-(Difluoromethyl)-6-(((1R)-1-(trifluoromethyl)propyl)amino)-3-pyridyl)-N-((3R,4S)-4-hydroxytetrahydrofuran-3-yl)-4-((2S)-2-methylpyrrolidine-1-carbonyl)thiazole-2-carboxamide], at full-length human RORγt (Conditions B or C), the “RORγt … % inhibition (value marked *)” value is 105* %. Also, at full-length human RORγt (setting [3]), the pIC50 was 7.62. Moreover, in assay [1], the pKd was 8.44.

Consider `O=C(N[C@@H]1COC[C@H]1O)c1nc(C(=O)N2C3CCC2CC3)c(-c2cnc(N[C@@H](C3CC3)C(F)(F)F)cc2C(F)F)s1` [Example 442, 4-((1s,4s)-7-Azabicyclo[2.2.1]heptane-7-carbonyl)-5-[6-[[(1S)-1-cyclopropyl-2,2,2-trifluoro-ethyl]amino]-4-(difluoromethyl)-3-pyridyl]-N-[(3R,4S)-4-hydroxytetrahydrofuran-3-yl]thiazole-2-carboxamide], for which the pIC50 against full-length human RORγt (setting [6]) was 6.49. For the same compound, on full-length human RORγt, the inhibition at 1 µM was 96%. Moreover, the pKd in assay [1] is 8.80.

On to `CC[C@H](Nc1cc(C(F)F)c(-c2sc(C(=O)N[C@@H]3CC[C@@H](O)C3)nc2C(=O)N2CCC[C@@H]2C)cn1)C(F)(F)F` [Example 399, 5-[4-(Difluoromethyl)-6-[[(1S)-1-(trifluoromethyl)propyl]amino]-3-pyridyl]-N-[(1R,3R)-3-hydroxycyclopentyl]-4-[(2S)-2-methylpyrrolidine-1-carbonyl]thiazole-2-carboxamide], for which, on full-length human RORγt, the inhibition at 3 µM is 100%. The pIC50 on full-length human RORγt (setting [2]) is 7.60. Further, the pKd in assay [1] was 8.92.

Take `C[C@H]1CCCCN1C(=O)c1nc(C(=O)NCC(C)(C)O)sc1-c1cnc(N[C@H](C)C(F)(F)F)cc1C(F)(F)F` [Example 45, N-(2-Hydroxy-2-methylpropyl)-4-((S)-2-methylpiperidine-1-carbonyl)-5-(4-(trifluoromethyl)-6-(((R)-1,1,1-trifluoropropan-2-yl)amino)pyridin-3-yl)thiazole-2-carboxamide]: the pIC50 at full-length human RORγt (setting [3]) was 8.00. At full-length human RORγt, the inhibition at 6 µM turned out to be 111%. Further, the pKd in assay [1] is 9.21.

As for `C[C@H]1CC(F)(F)CN1C(=O)c1nc(C(=O)NCC(C)(C)O)sc1-c1cnc(NC(C2CC2)C2CC2)cc1C(F)F` [Example 177, (S)-5-(6-((Dicyclopropylmethyl)amino)-4-(difluoromethyl)pyridine-3-yl)-4-(4,4-difluoro-2-methylpyrrolidine-1-carbonyl)-N-(2-hydroxy-2-methylpropyl)thiazole-2-carboxamide], the “RORγt … % inhibition (value marked *)” value on full-length human RORγt (Conditions B or C) is 117* %. The pIC50 at full-length human RORγt (setting [3]) was 8.18. Moreover, the pKd in assay [1] was 9.01.

As for `C[C@H]1CCCN1C(=O)c1nc(C(=O)NCC(C)(C)O)sc1-c1cnc(N[C@H]2CCCC2(F)F)cc1C(F)(F)F` (single isomer, unassigned) [Example 279, 5-(6-(((S*)-2,2-Difluorocyclopentyl)amino)-4-(trifluoromethyl)pyridin-3-yl)-N-(2-hydroxy-2-methylpropyl)-4-((S)-2-methylpyrrolidine-1-carbonyl)thiazole-2-carboxamide], the inhibition at 1 µM at full-length human RORγt amounted to 109%. Also, the pIC50 on full-length human RORγt (setting [2]) was 7.21. Moreover, in assay [1], the pKd was 7.74.
